Patent US6852686B2, “Methods for ameliorating icthyosiform skin diseases” (The United States of America as represented by the …, priority 1999, dated 2005)

Columns and labels:
TGase 1 [1] = molecular target: T1, TGase 1 (Homo sapiens, UniProt P22735); assay: Lipid Z esterification of involucrin by TGase 1 on SLV; assay type: biochemical
T1 construct: Recombinant full-length human TGase 1 and TGase 3 enzymes were expressed in Sf9 cells by the BaculoGold system; made in house; host or cells: Sf9 insect cells, BaculoGold baculovirus system, pVL1392 vector
T1 sequence (P22735 1-817): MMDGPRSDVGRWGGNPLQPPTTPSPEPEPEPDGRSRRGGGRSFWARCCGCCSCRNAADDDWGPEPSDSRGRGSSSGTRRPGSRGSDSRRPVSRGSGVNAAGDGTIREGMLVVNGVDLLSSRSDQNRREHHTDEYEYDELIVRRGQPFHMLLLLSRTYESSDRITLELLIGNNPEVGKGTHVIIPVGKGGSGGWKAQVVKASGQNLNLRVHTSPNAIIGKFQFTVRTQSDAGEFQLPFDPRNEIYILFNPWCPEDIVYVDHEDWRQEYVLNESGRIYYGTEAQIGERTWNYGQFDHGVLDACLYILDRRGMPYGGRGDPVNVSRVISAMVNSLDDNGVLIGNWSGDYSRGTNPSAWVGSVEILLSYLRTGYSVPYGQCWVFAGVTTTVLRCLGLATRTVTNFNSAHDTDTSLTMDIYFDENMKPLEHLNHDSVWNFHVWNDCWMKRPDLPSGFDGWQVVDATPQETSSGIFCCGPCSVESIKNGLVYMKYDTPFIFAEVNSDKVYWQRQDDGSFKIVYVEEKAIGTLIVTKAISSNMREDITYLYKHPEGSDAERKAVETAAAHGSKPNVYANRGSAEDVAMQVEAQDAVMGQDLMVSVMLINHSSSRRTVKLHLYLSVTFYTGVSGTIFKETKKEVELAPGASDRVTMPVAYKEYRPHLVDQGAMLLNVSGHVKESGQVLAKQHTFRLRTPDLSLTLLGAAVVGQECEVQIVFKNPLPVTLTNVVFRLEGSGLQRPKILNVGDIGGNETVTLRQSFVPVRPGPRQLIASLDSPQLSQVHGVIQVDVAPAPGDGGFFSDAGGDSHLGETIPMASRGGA
Experimental: A mixture of 54 mol % dimyristoyl-phosphatidylcholine, 15 mol % dipalmitoyl-phosphatidylserine, 30 mol % cholesterol (all from Sigma, St. Louis, Mo.) and 1 mol % lipid Z was made in chloroform: methanol (9:1). This solution was dried down, taken up in aqueous buffer and dispersed by sonication as before (Nemes et al., J. Biol. Chem., 274: in press (1999)). The SLV suspension was equipped with TGase 1 enzyme by incubation at 37° C. for 15 min prior to adding substrates.
The reactions were stopped by the addition of EDTA to 10 mM.
Following reaction, 0.1 ml 20% SDS in water was added to the samples and the mixture was vortexed. This mixture was precipitated and washed three times with acetone-triethylamine-acetic acid (90:5:5) to remove the SDS and the unbound lipids (Konigsberg, W. H. and L. Henderson, Meth. Enzymol., 91: 254-259 (1983), herein expressly incorporated by reference in its entirety). After further washing with acetone the pellet was dried under vacuum and redissolved in 50 mM Tris-HCl (pH 7.5). Resolubilized protein was digested for 16 h with 2 mol % modified trypsin (Boehringer Mannheim). Peptides were resolved on a 250×2 mm PrimesphereC4 HPLC column (Phenomenex) and separated using a gradient elution from 75% buffer A (0.1% TFA in water) to 75% buffer B (50% 2-propanol in acetonitrile) in 40 min. Under these conditions, lipo-peptides were retarded but free peptides elute with the solvent front (Marekov, L. N. and P. M. Steinert, J. Biol. Chem., 273: 17763-17770 (1998), herein expressly incorporated by reference in its entirety).
Amino acid analysis of hydrolyzed samples (5.7 N HCl at 110° C. for 24 h in vacuo) was used to routinely measure amounts of lipo-peptides. Aliquots of isolated lipo-peptide peaks were attached to a solid support for sequencing (Marekov, L. N. and P. M. Steinert, J. Biol. Chem., 273: 17763-17770 (1998), herein expressly incorporated by reference in its entirety). Saponification of lipo-peptides was done with 1 N KOH in 80% methanol for 2 h at 37° C., after which the solution was acidified, dried and peptides were recovered by HPLC on a C18 column.

TGase 1 [2] = molecular target: T1, TGase 1; assay: as above; assay type: biochemical; remark: listed apart in the source
[3] = 0.3 nmol involucrin/μmol lipid, 4 h reaction

Question: With `CCCCCCCCCCCCC/C=C/[C@@H](O)[C@H](CO)NC(=O)CCCCCCCCCCCCCCCOCCCCCCCCCCCCCCCCO` [lipid Z, N-[16-(16-hydroxyhexadecyl)oxypalmitoyl]-sphingosine] as the compound, how does the “maximum lipid ester formation for Gln 496” value (TGase 1 [1]; [3]) read?
Answer: The value was under 0.05 mol/mol.

Question: And the maximum lipid ester formation per mole of Gln residues 107, 118, 122, and 133 (TGase 1 [1]; [3])?
Answer: Its maximum lipid ester formation per mole of Gln residues 107, 118, 122, and 133 is 0.1 to 0.3 mol/mol.

Question: What about the “incorporation rate into involucrin” value (TGase 1 [1]; SLV formulations with 1 mol % lipid Z) of the same compound?
Answer: Its value is 2.2±0.3 fmol of lipid Z/s.

Question: What about the “involucrin-lipid adduct formation by TGase 1 on SLV membranes” value (TGase 1 [1]; ceramide incorporated in SLV) of the same compound?
Answer: The value was “formed saponifiable protein-lipid adducts”.

Question: And the “amount incorporated into SLV without interference with SLV stability or binding of involucrin and TGase 1” value (TGase 1 [2])?
Answer: Its value is at most 25 mol %.

Question: What about the “KM of lipid Z incorporation into involucrin” value (TGase 1 [2]; rate linear up to 25 mol % lipid Z in SLV) of the same compound?
Answer: Its value is over 100 mol %.
